Data: patent US20240299383A1, “IMMUNOMODULATOR COMPOSITION COMPRISING AZVUDINE” (HENAN GENUINE BIOTECH CO., LTD., priority 2023, published 2024)

Experiments:
[1] = tested on: murine colorectal cancer CT-26 cell line; experiment: Azvudine in combination with PD-1 antibody in murine colorectal cancer CT-26 homograft tumor model; type: in vivo, BALB/c female mouse; settings: for T/C (%) / TGI(%): tumor volume on the 17th day; for T/Cweight (%): 17th day
Description: Further, the anti-tumor effect of azvudine in combination with PD-1 antibody on BALB/c female mouse subcutaneously xenografted with murine colorectal cancer CT-26 cell line animal model was studied.

CT26 cells [2] = experiment: Anti-tumor effect of azvudine in CT-26 tumor-bearing mice with severe immunodeficiency; type: in vivo; settings: mice with severe immunodeficiency (B-NDG), o.p., QD×2 W
[3] = tested on: cytokines (GM-CSF, MCP-1, IFNγ, IFNβ, TNFa, IL2, IL4, IL8, IL10); experiment: Release level of cytokines in serum and tumor tissue by MSD method, CT26 tumor model; type: in vivo, BALB/c mice; settings: vs Vehicle
Procedure: CT26 cells were cultured in RPMI 1640 medium containing 10% fetal bovine serum at 37° C. in a 5% CO2 incubator. The cells were passaged routinely once a week. When the cell saturation reached 80%-90% and the cell number achieved the requirement, the cells were collected, counted and inoculated.
Animals were BALB/c female mice, 8 weeks old and weighing 18.5-22.9 g, which were provided by Shanghai Lingchang Biotechnology Co., Ltd.
0.1 mL (0.3×10^6) of CT26 cells were subcutaneously inoculated into each mouse. When the average tumor volume reached 101 mm^3, the mice were grouped and administered.
• 1) Quick-frozen tissue samples were taken out from the −80° C. refrigerator. • 2) On dry ice, part of the tumor tissue (about 50-100 mg) were cut out, and put into a 2 mL centrifuge tube with steel beads. Then the tube was added with 350 μL of cell lysis solution RIPA (in which 1% protease inhibitor and phosphatase inhibitor had been freshly added). • 3) The tissue was crushed with Tissue grinder at the highest frequency for 5 min. • 4) The tissue lysate was put on ice for 30 min. • 5) The tissue lysate was centrifuged at 12,000 rpm at 4° C. for 10 min. The supernatant was collected and put into a new 1.5 mL centrifuge tube.
• 1) The protein extract was diluted 50 times (2 μL of protein extract+98 μL of RIPA cell lysis buffer). • 2) Standard product and diluted samples were added at 10 μL/well in a 96-well transparent plate. • 3) Preparation of working solution: Reagent A and reagent B were mixed at a ratio of 50:1. 200 μL of the mixture was added to each well. • 4) The 96-well transparent plate was incubated at 37° C. for 30 min. • 5) The OD value at 562 nm was detected by a microplate reader, and then the tumor protein was quantified according to the OD result. • 6) The total protein concentration of the tumor samples was uniformly 2 mg/mL. • 7) The protein was quantified with BCA quantification kit. • 8) According to the quantitation results, the sample protein concentration was uniformly diluted to 2 μg/μL with RIPA lysis solution. • 9) MSD experiment was performed or the diluted samples were stored in a −80° C. refrigerator.
• 1) Preparation of standard product: 250 μL of Diluent 43 diluent was added to the standard product. The mixture was mixed well, and left to stand at room temperature for 15-30 min, and serially diluted by 4 times using Diluent 43 to obtain standard products Nos. 1-7. Diluent 43 was standard product No. 8. • 2) Sample dilution: The samples were diluted with Diluent 43. • 3) Antibody dilution: 100× antibody stock solution was diluted to 1×. • 4) Buffer preparation: 5× buffer was diluted to 1× with deionized water.
• 1) 200 μL of each biotin antibody was added to 300 μL of the designated linker. The resulting mixture was stirred by vortex and incubated at room temperature for 30 min. • 2) 200 μL of stop solution was added. The resulting mixture was stirred by vortex and incubated at room temperature for 30 min. • 3) 600 μL of each U-PLEX Linker-Coupled antibody solution (10×) was mixed into a tube and mixed by vortex. • 4) When the number of binding antibodies was less than 10, the solution was supplemented to 6 ml with stop solution. • 5) 50 μL of multiplex coating solution was added to each well. The plate was sealed with an adhesive board, and shaken at room temperature for 1 h. • 6) The wells were washed 3 times with 1× MSD wash Buffer at 150 μL/well. • 7) Standard product and detection antibody solutions were prepared. • 8) 25 μL of Diluent 43 was added to each well. • 9) 25 μL of prepared standard product, tissue sample or serum sample was added to each well. The plate was sealed with an adhesive board, and incubated at room temperature for 1 h. • 10) The wells were washed 3 times with 1× MSD wash Buffer at 150 μL/well. • 11) 50 μL of detection antibody solution was added to each well. […]

CT26 cells [4] = experiment: Anti-tumor effect of azvudine in CT26 tumor-bearing mice with normal immune function; type: in vivo, BALB/c mouse; settings: mice with normal immunity (BALB/c), o.p., QD×2 W
B-cell lymphoma A20 = experiment: Azvudine in combination with PD-1 antibody in B-cell lymphoma A20 tumor-bearing mouse model; type: in vivo
Description: The effect of azvudine in combination with PD-1 antibody on the B-cell lymphoma A20 tumor-bearing mouse model was further studied.

[5] = tested on: immune cells in CT26 tumor; experiment: Infiltration of immune cells in tumor by flow cytometry, CT26 tumor model; type: in vivo, BALB/c mice
Procedure: Tumor tissue was washed once with PBS, and removed of fat. The tumor tissue was quickly cut into small pieces. The chopped tumor tissue was transferred to a tube C containing 5 mL of digestive enzyme mixed solution. The tube C was put in a tissue processor, the tissue fragments were ensured to be submerged in the digestive enzyme, and the program m_imptumor_01_01 was performed. The sample was put in a water bath shaker at 37° C. for 30 min of digestion. After the digestion was completed, the program m_imptumor_01_01 was performed again, and then an appropriate amount of PBS containing 2% fetal bovine serum was added to terminate the digestion. The obtained mixture was filtered with a […] cell mesh to remove residual tissue, and washed with PBS. An appropriate volume of PBS was added according to the amount of cell precipitate to resuspend cells. Then the cells were gently blown evenly, and counted with a hemocytometer. An appropriate amount of cells were taken out and stained with antibodies.
The cells were resuspended with PBS to a concentration of 1×10^6 cells/100 μL. The cell suspension was added to a 96-well V-bottom plate at 100 μL per well. The plate was centrifuged at 450 g at 4° C. for 5 min, and the supernatant solution was discarded. The cells were resuspended with 100 μL of prepared Zombie NIR Live/Dead solution, then cultured at 4° C. in the dark for 30 min, and then washed twice with PBS. Then the cells in each well were resuspended with 50 μL of staining buffer containing Fc receptor inhibitor (1 μL of Fc receptor inhibitor+49 μL of staining buffer), and cultured at 4° C. in the dark for 5 min. Then the cells in each well were resuspended with 50 μL of Brilliant staining buffer containing Pacific Orange CD8, BV605 MHCII, BV650 CD25, BV750 CD45, BV785 Ly6C, AF488 CD11c, AF532 CD11b, PE-DZL594 CD49b, APC Ly6G, APC-Cy5.5 CD4, APC-Cy7 CD13, BV42 CD69 (or an isotype control antibody thereof), and cultured at 4° C. in the dark for 30 min. After staining was completed, the cells were washed twice with 200 μL of staining buffer.
The cells in each well were resuspended with 100 μL of Fixation/Permeabilization, and cultured at 4° C. in the dark for 30 min. After permeabilization was completed, the cells were washed twice with 200 μL of Permeabilization buffer. The cells were resuspended with 100 μL of Permeabilization buffer containing Fc receptor inhibitor, and cultured at 4° C. in the dark for 5 min. Then the cells were directly added with intracellular antibodies PE-Cy7 FoxP3 and PE Ki67 (or an isotype control antibody thereof), and cultured at 4° C. in the dark for 30 min. After staining was completed, the cells were washed twice with 200 μL of Permeabilization buffer, and resuspended with 200 μL of staining buffer. The flow cytometry detection was completed within 24 h.
The flow cytometry data was analyzed using FlowJo, SPSS and Graphpad Prism softwares, specifically including the following: • 1) The proportion of CD45+ cells in living cells of tumor tissue; • 2) The ratio of T, CD4+T, CD8+T, Treg, Myeloid, DC, NK, PMN-MDSC and M-MDSC in CD45+ cells; • 3) The ratio of CD8+T to Treg and the ratio of CD4+Teff to Treg; • 4) The CD69 positive rate and median fluorescence intensity (MFI) in T, CD4+T, and CD8+T cells; • 5) The Ki67 positive rate and median fluorescence intensity (MFI) in T, CD4+T, CD8+ and T cells; • 6) The number of T, CD4+T, CD8+T, Treg, Myeloid, DC, NK, PMN-MDSC, M-MDSC, and white blood cells per 100 mg of tumor tissue;
In this experiment, the CT26 tumor model was established on BALB/c mice, and the mice were treated with azvudine at different doses (0.25 mg/kg, 1 mg/kg). Tumor samples were collected. Then the proportion of each immune cell subset and the activation and proliferation of T, CD4+T and CD8+T were detected by flow cytometry.

[6] = tumor tissue, 0.25 mg/kg and 1 mg/kg PO QD × 5D, certain dose-dependency
[7] = 0.25 mg/kg and 1 mg/kg PO QD × 5D, dose-dependent
[8] = after administration, 0.25 and 1 mg/kg, vs control group
[9] = high-dose group (1 mg/kg PO QD × 5D)

Structure (SMILES): [N-]=[N+]=N[C@]1(CO)O[C@@H](n2ccc(N)nc2=O)[C@@H](F)[C@@H]1O [Azvudine]
- Tumor weight (mg) (On the 17th day) ([1]; Azvudine 0.25 mg/kg): 848 ± 210 mg
- Tumor volume (mm^3) on the 17th day ([1]; Azvudine 0.25 mg/kg p.o. QD × 18 days): 768 ± 74 mm^3
- Tumor volume (mm^3) on the 17th day ([1]; Azvudine 0.25 mg/kg p.o. QD × 18 days, listed as azvudine): 768 mm^3
- T/C (%) ([1]; Azvudine 0.25 mg/kg p.o.): 39.18%
- TGI(%) ([1]; Azvudine 0.25 mg/kg p.o.): 63.26%
- T/Cweight (%) ([1]; Azvudine 0.25 mg/kg): 42.52%
- Tumor weight (mg) (On the 17th day) ([1]; Azvudine 0.5 mg/kg): 386 ± 256 mg
- Tumor volume (mm^3) on the 17th day ([1]; Azvudine 0.5 mg/kg p.o. QD × 18 days): 347 ± 77 mm^3
- Tumor volume (mm^3) on the 17th day ([1]; Azvudine 0.5 mg/kg p.o. QD × 18 days, listed as azvudine): 347 mm^3
- T/C (%) ([1]; Azvudine 0.5 mg/kg p.o.): 17.63%
- TGI(%) ([1]; Azvudine 0.5 mg/kg p.o.): 84.85%
- T/Cweight (%) ([1]; Azvudine 0.5 mg/kg): 19.37%
- IR(%) (CT26 cells [2]; 0.25 mpk): 9.4%
- TGI(%) (CT26 cells [2]; 0.25 mpk): 13%
- IR(%) (CT26 cells [2]; 1 mpk): 49.2%
- TGI(%) (CT26 cells [2]; 1 mpk): 53%
- release of MCP-1 ([3]; serum samples, 0.25 mg/kg PO QD × 5D, 2 h after last administration): significantly reduced
- release of IL8 ([3]; serum samples, 0.25 mg/kg and 1 mg/kg PO QD × 5D): significantly reduced
- other cytokines ([3]; serum samples, 0.25 mg/kg and 1 mg/kg): no significant change
- release of IFN-β [3, 6]: decreased
- release of IFNγ [3, 6]: increased
- release of TNFα [3, 6]: increased
- IR(%) (CT26 cells [4]; 0.25 mpk): 57.5%
- TGI(%) (CT26 cells [4]; 0.25 mpk): 63%
- IR(%) (CT26 cells [4]; 1 mpk): 84.5%
- TGI(%) (CT26 cells [4]; 1 mpk): 94%
- IR(%) (B-cell lymphoma A20; Azvudine single drug, 1 mpk): 70.8%
- TGI(%) (B-cell lymphoma A20; Azvudine single drug, 1 mpk): 70%
- inhibitory activity on the B-cell lymphoma A20 tumor-bearing mice (B-cell lymphoma A20; administered alone): certain inhibitory activity
- TGI (B-cell lymphoma A20; azvudine 2 mg/kg): 88%
- infiltration of immune cells in the tumor ([5]; 0.25 mg/kg and 1 mg/kg PO QD × 5D, vs control group): increased
- infiltration of CD8+T cells in the tumor [5, 7]: increase
- infiltration of NK cells in the tumor [5, 7]: increase
- other cell subsets after administration ([5]; 0.25 and 1 mg/kg, compared with the control group): no significant change
- expression level of CD69 in T, CD4+ T, and CD8+ T cells [5, 8]: no significant difference
- expression level of Ki67 in T, CD4+ T, and CD8+ T cells [5, 8]: no significant difference
- proportion of M-MDSC cells [5, 9]: significant reduction
- proportion of PMN-MDSC cells [5, 9]: significant reduction
- proportion of myeloid cells [5, 9]: significantly reduced
- ratio of CD4Teff/Treg [5, 9]: significantly increased
- ratio of CD8T/Treg [5, 9]: significantly increased
- CD8T/Treg and CD4Teff/Treg ratios and proportion of myeloid, M-MDSC, PMN-MDSC cells ([5]; low-dose group (0.25 mg/kg PO QD × 5D), compared with high-dose group): same trend
